Legend:
[1] = tested on: SHP-77; assay: Combined use with irradiation (IR), Bliss Independence model (Cell Titer Glo, 7 days); type: cell-based; settings: combination with IR
Description: (§1) DLD-1 colorectal adenocarcinoma cells, NUGC4 gastric cancer cells, NCI-H460 non-small cell lung cancer cells, SHP-77 small cell lung cancer cells, and LNCAP prostate cancer cells were cultured in a 1640 medium containing 10% fetal bovine serum. MDA-MB-436 breast cancer cells were cultured in a DMEM medium containing 10% fetal bovine serum. OVCAR3 ovarian cancer cells were cultured in a 1640 medium containing 20% fetal bovine serum and 10 µg/mL bovine insulin. The cells were all cultured at 37 °C with 5% CO2. Cells at the logarithmic growth phase were available for the experiment.
(§2) 100 µL of the cell medium was added to rows A and H and columns 1 and 12 of a 96-well cell culture plate. Cultured cells were resuspended (adherent cells were digested with trypsin) and counted to give information on cell density and viability. The dilution ratio of the resuspended cells required for inoculating a fixed number of cells into 90 µL of the medium in each culture well was calculated based on the cell density information. After the resuspended cells were diluted with the corresponding medium, 90 µL of the diluted cells were transferred to columns 2-11 of rows B-G of a 96-well cell culture plate using an Eppendorf multi-channel pipette (60 wells in total for each plate). The cell culture plate was incubated overnight in an incubator at 37 °C with 5% CO2.
(§3) The test compound was dissolved in DMSO to give a 10 mM stock solution for later use. In the experiment, the compound was further diluted to the corresponding concentration according to the concentration designed in the experiment, and based on this concentration, 4-fold serial gradient dilution was performed to give a total of 10 dose concentrations (the lowest dose was 0, and other specific concentration values were shown in FIG. 2). 10 µL of the diluted compound was added to the corresponding cell plate well, such that the final concentration of DMSO was 0.25%. The compound was incubated with the cells in an incubator at 37 °C with 5% CO2 for 4 h, and then the cell plate was transferred to Cellrad for irradiation (abbreviated as IR) at different doses (see FIG. 2 for specific dose values). After the irradiation was completed, the cell plate was incubated in an incubator at 37 °C with 5% CO2 for another 7 days, Cell Titer Glo was added at 50 µL/well, and the luminescence value of each well was read using an Envision microplate reader.
(§4) The luminescence value of the well containing only the cell medium was taken as the background (RLUbackground, corresponding cell survival rate to be 0%), the cell well containing only 0.25% DMSO without the compound and the irradiation treatment was taken as the maximum signal (RLUDMSO, corresponding cell survival rate to be 100%), and the luminescence values of the remaining wells containing cells and compounds at different concentrations were taken as RLUsample. The survival rate of each cell well was calculated as follows: Survival rate (%) = (RLUsample−RLUbackground)/(RLUDMSO−RLUbackground) × 100% [formula]
(§5) The interaction between the drug and irradiation (synergistic, independent, or antagonistic) was statistically analyzed by the Bliss Independence model using Combenefit software (Bliss, C.I., Bacteriol. Rev., 1956, 20, 243-258). The model assumes that the drug and irradiation act independently. The theoretical expected action curve of the combination was calculated from the following equation: Bliss effect = effect A + effect B−effect A × effect B [formula] wherein effect A is the effect of drug A at a particular concentration. Effect B is the effect of irradiation at a particular dose.
(§6) The Bliss effect is the expected effect when the combination of the drug and irradiation is administered precisely. A negative Bliss score (δ = observed effect - Bliss effect) indicates an antagonistic effect between the drug and irradiation if the observed effect (i.e., the experimentally measured combined effect) is less than the Bliss effect. […]

[2] = tested on: OVCAR3; assay: as above; type: cell-based; settings: combination with IR
Description: as §1, §2, §3, §4, §5, §6

[3] = tested on: DLD-1; assay: as above; type: cell-based; settings: combination with IR
Description: as §1, §2, §3, §4, §5, §6

[4] = tested on: MDA-MB-436; assay: as above; type: cell-based; settings: combination with IR
Description: as §1, §2, §3, §4, §5, §6

[5] = tested on: NUGC4; assay: as above; type: cell-based; settings: combination with IR
Description: as §1, §2, §3, §4, §5, §6

[6] = tested on: LNCAP; assay: as above; type: cell-based; settings: combination with IR
Description: as §1, §2, §3, §4, §5, §6

[7] = tested on: NCI-H460; assay: as above; type: cell-based; settings: combination with IR
Description: as §1, §2, §3, §4, §5, §6

[8] = tested on: human colorectal adenocarcinoma DLD1 BRCA2-/- cells; assay: Efficacy of combined use with olaparib in DLD1 BRCA2-/- xenograft tumor model; type: in vivo, NU/NU nude mice; settings: 10 mg/kg QD intragastric in combination with 50 mg/kg olaparib QD
Source text: The anti-tumor activity of the sodium salt of compound I used in combination with olaparib (MCE, 136925) was studied using a DLD1 BRCA2-/- subcutaneous tumor model. 32 female NU/NU nude mice (6-8 weeks old, Beijing Vital River Laboratory Animal Technology Co., Ltd.) were subcutaneously inoculated with 1 × 10^7 human colorectal adenocarcinoma DLD1 BRCA2-/- cells (Horizon- HD105-007). When the tumors grew to 80-100 mm^3, the mice were randomly divided into four groups with eight mice per group: a first group treated with vehicle control (QD) by intragastric administration, a second group treated with a 10 mg/kg solution of the sodium salt of compound I (QD) by intragastric administration, a third group treated with a 50 mg/kg olaparib solution (QD) by intragastric administration, and a fourth group treated with a 10 mg/kg solution of the sodium salt of compound I (QD) by intragastric administration and a 50 mg/kg olaparib solution (QD) by intragastric administration. The vehicle of olaparib was a solution containing 10% DMSO, 50% 2-hydroxypropyl-β-cyclodextrin (Aladdin-F2223139, 60% aqueous solution), and 40% water, the vehicle of the sodium salt of compound I was 10% (w/v) Vitamin E TPGS (Hanhong Chemical-BH-GN0100619-22 1101) aqueous solution, and the vehicle of the vehicle control group was a mixture of the vehicle of olaparib and the vehicle of the sodium salt of compound I (mixed at a volume ratio of 1:1). Mice had free access to food and water throughout the experiment.
Tumor diameters were measured twice weekly using a vernier caliper. The tumor volume (V) was calculated using the following formula: V = 0.5a × b^2, wherein a and b represent the long diameter and short diameter of the tumor, respectively.
Mouse body weight was measured twice weekly.
Two way ANOVA was used to compare the differences in tumor growth trend among groups, and a significant difference was considered when p < 0.05.

COc1ccc(Cl)cc1-c1cc(C)ncc1C(=O)Nc1nc2ncc(-c3ccc(C#N)cc3)nc2s1.[Na] [Sodium salt of compound I, Sodium Salt of 4-(5-Chloro-2-methoxyphenyl)-N-[6-(4-cyanophenyl)thiazolo[4,5-b]pyrazin-2-yl]-6-methylnicotinamide]
Combined effect [1]: Synergistic
Combined effect [2]: Synergistic
Combined effect [3]: Synergistic
Combined effect [4]: Synergistic
Combined effect [5]: Synergistic
Combined effect [6]: Synergistic
Combined effect [7]: Synergistic
anti-tumor effect of combination with olaparib [8]: strong synergistic anti-tumor effect
tumor volume ([8]; versus either single drug group): significantly lower
safety ([8]; condition of mice, body weight): good safety
